Experimental data taken from paper PMC7684622, “The application of L‐glutaminase for the synthesis of the immunomodulatory γ‐D‐glutamyl‐L‐tryptophan and the kokumi‐imparting γ‐D‐glutamyl peptides” (Food Science & Nutrition, 2020).

Each molecule was assayed on T1, L-glutaminase of Bacillus amyloliquefaciens (assay: transpeptidation, gamma-D-Glu-L-Trp formed, by HPLC / UPLC-MS). Details: gamma-glutamyl donor; fixed 25 mM L-Trp; apparent; read-out: Synthesis.
T1 construct: gene ggt; commercial enzyme preparation (Amano Enzyme China); called L-Gln amidohydrolase EC 3.5.1.2 with gamma-glutamyl transpeptidase activity
Format: biochemical
Excerpt: transpeptidation, gamma-D-Glu-L-Trp formed, by HPLC / UPLC-MS on L-glutaminase of Bacillus amyloliquefaciens

Row | Km | Structure (SMILES)
1 | 5.53 ± 0.98 mM | NC(=O)CC[C@@H](N)C(=O)O [D-Gln]

The molecules below were run on T1, L-glutaminase of Bacillus amyloliquefaciens (assay: transpeptidation, gamma-L-Glu-L-Trp formed, by HPLC / UPLC-MS). Details: gamma-glutamyl donor; fixed 25 mM L-Trp; apparent; read-out: Synthesis.
Format: biochemical
Excerpt: transpeptidation, gamma-L-Glu-L-Trp formed, by HPLC / UPLC-MS on L-glutaminase of Bacillus amyloliquefaciens

Row | Km | Structure (SMILES)
2 | 0.98 ± 0.08 mM | NC(=O)CC[C@H](N)C(=O)O [L-Gln]

The molecules below were run on T1, L-glutaminase of Bacillus amyloliquefaciens (assay: transpeptidation, product by HPLC / UPLC-MS). Details: acceptor; fixed 25 mM D-Gln; apparent; read-out: Synthesis.
Format: biochemical
Excerpt: transpeptidation, product by HPLC / UPLC-MS on L-glutaminase of Bacillus amyloliquefaciens

Row | Km | Structure (SMILES)
3 | 88.8 ± 6.12 mM | CSCC[C@H](N)C(=O)O [L-Met]
4 | 46.3 ± 2.32 mM | N[C@@H](Cc1ccccc1)C(=O)O [L-Phe]
5 | 32.5 ± 3.86 mM | N[C@@H](Cc1c[nH]c2ccccc12)C(=O)O [L-Trp]
6 | 76.6 ± 3.25 mM | CC(C)[C@H](N)C(=O)O [L-Val]

Each molecule was assayed on T1, L-glutaminase of Bacillus amyloliquefaciens (assay: hydrolysis, HPLC / UPLC-MS). Details: hydrolysis reaction; apparent.
Format: biochemical
Excerpt: hydrolysis, HPLC / UPLC-MS on L-glutaminase of Bacillus amyloliquefaciens

Row | Structure (SMILES) | Km
7 | N[C@H](CCC(=O)N[C@@H](Cc1c[nH]c2ccccc12)C(=O)O)C(=O)O [γ-D-Glu-L-Trp] | 36.7 ± 2.86 mM
8 | CC(C)[C@H](NC(=O)CC[C@@H](N)C(=O)O)C(=O)O [γ-D-Glu-L-Val] | 68.8 ± 5.25 mM

Now from value to molecule:

Row | Km | Structure (SMILES)
9 | 62.2 ± 4.61 mM | CSCC[C@H](NC(=O)CC[C@@H](N)C(=O)O)C(=O)O [γ-D-Glu-L-Met]
10 | 52.8 ± 3.02 mM | N[C@H](CCC(=O)N[C@@H](Cc1ccccc1)C(=O)O)C(=O)O [γ-D-Glu-L-Phe]
11 | 15.7 ± 1.82 mM | N[C@@H](CCC(=O)N[C@@H](Cc1c[nH]c2ccccc12)C(=O)O)C(=O)O [γ-L-Glu-L-Trp]
12 | 90.4 ± 6.25 mM | CC(C)[C@H](NC(=O)CC[C@@H](NC(=O)CC[C@@H](N)C(=O)O)C(=O)O)C(=O)O [γ-[D-Glu]2-L-Val]
